Measured values reported in patent publication US20200347033A1, “MODULATORS OF THE INTEGRATED STRESS PATHWAY” (Calico Life Sciences LLC, priority 2017, published 2020).

System: HEK293T cells carrying the ATF4 luciferase reporter
Assay: ATF4-Luc assay (in vitro model of vanishing white matter disease)
Format: cell-based, human
Conditions: HEK293T cells with ATF4 5'-UTR firefly luciferase reporter; 1 μg/mL tunicamycin; 7 hours; One Glo luminescence
Procedure: In order to test exemplary compounds of the invention in a cellular context, a stable VWMD cell line was first constructed. The ATF4 reporter was prepared by fusing the human full-length ATF4 5′-UTR (NCBI Accession No. BC022088.2) in front of the firefly luciferase (FLuc) coding sequence lacking the initiator methionine as described in Sidrauski et al (eLife 2013). The construct was used to produce recombinant retroviruses using standard methods and the resulting viral supernatant was used to transduce HEK293T cells, which were then subsequently selected with puromycin to generate a stable cell line.
HEK293T cells carrying the ATF4 luciferase reporter were plated on polylysine coated 384-well plates (Greiner Bio-one) at 30,000 cells per well. Cells were treated the next day with 1 μg/mL tunicamycin and 200 nM of a compound of Formula (I) for 7 hours. Luminescence was measured using One Glo (Promega) as specified by the manufacturer. Cells were maintained in DMEM with L-glutamine supplemented with 10% heat-inactivated FBS (Gibco) and Antibiotic-Antimycotic solution (Gibco).
Table 2 below summarizes the EC50 data obtained using the ATF4-Luc assay for exemplary compounds of the invention.

“2-(4-chloro-3-fluorophenoxy)-N-[3-(5-chloro-1-hydroxy-3-oxo-1,3-dihydro-2H-isoindol-2-yl)bicyclo[1.1.1]pentan-1-yl]acetamide and 2-(4-chloro-3-fluorophenoxy)-N-[3-(5-chloro-3-hydroxy-1-oxo-,3-dihydro-2H-isoindol-2-yl)bicyclo[1.1.1]pentan-1-yl]acetamide [Compound 153]” gave an EC50 greater than 2000 nM.

Same assay, conditions: Homo sapiens, HEK-293T; HEK293T cells with ATF4 5'-UTR firefly luciferase reporter; 1 μg/mL tunicamycin; 7 hours; One Glo luminescence

First: O=C(COc1ccc(Cl)c(F)c1)NC12CC(N3CC[C@@H](Oc4ccc(Cl)cc4)C3=O)(C1)C2 (single isomer, unassigned) [Compound 102]
Second: O=C(COc1ccc(Cl)c(F)c1)NC12CC(N3CC[C@H](Oc4ccc(Cl)cc4)C3=O)(C1)C2 (single isomer, unassigned) [Compound 103]
The EC50 of the first is higher: 250 to 1000 nM for the first, 50 to 250 nM for the second. The second is the more potent here.

`O=C(COc1ccc(Cl)c(F)c1)NC12CC(N3C(=O)c4cc(Cl)ccc4[C@@H]3O)(C1)C2` (single isomer, unassigned) [Compound 148, 2-(4-chloro-3-fluorophenoxy)-N-{3-[(1)-5-chloro-1-hydroxy-3-oxo-1,3-dihydro-2H-isoindol-2-yl]bicyclo[1.1.1]pentan-1-yl}acetamide] and `O=C(COc1ccc(Cl)c(F)c1)NC12CC(N3C(=O)c4cc(Cl)ccc4[C@H]3O)(C1)C2` (single isomer, unassigned) [Compound 151] cannot be ordered by EC50: greater than 2000 nM for the first, greater than 2000 nM for the second.

Compared with `O=C(COc1ccc(Cl)c(F)c1)NC12CC(N3C(=O)c4ccc(Cl)cc4[C@H]3O)(C1)C2` (single isomer, unassigned) [Compound 149], `O=C(COc1ccc(Cl)c(F)c1)NC12CC(N3C(=O)c4ccc(Cl)cc4[C@@H]3O)(C1)C2` (single isomer, unassigned) [Compound 150] is higher in EC50: 250 to 1000 nM for the first, 1000 to 2000 nM for the second. The first is the more potent here.

First: O=C(COc1ccc(Cl)c(F)c1)NC12CCC(N3CC[C@@H](c4ccc(Cl)cc4)C3=O)(CC1)C[C@@H]2O (single isomer, unassigned) [Compound 154]
Second: O=C(COc1ccc(Cl)c(F)c1)NC12CCC(N3CC[C@H](c4ccc(Cl)cc4)C3=O)(CC1)C[C@@H]2O (single isomer, unassigned) [Compound 155]
The EC50 of the first is higher: 250 to 1000 nM for the first, less than 50 nM for the second. The second is the more potent here.

Compared with `O=C(COc1ccc(Cl)c(F)c1)NC12CC(N3C[C@H](c4ccc(Cl)c(F)c4)OC3=O)(C1)C2` (single isomer, unassigned) [Compound 156], `O=C(COc1ccc(Cl)c(F)c1)NC12CC(N3C[C@@H](c4ccc(Cl)c(F)c4)OC3=O)(C1)C2` (single isomer, unassigned) [Compound 157] is lower in EC50: 250 to 1000 nM for the first, 50 to 250 nM for the second. The second is the more potent here.

Compared with `O=C(COc1ccc(Cl)c(F)c1)NC12CC(N3CCC(Oc4ccc(Cl)c(F)c4)C3=O)(C1)C2` (centres unmarked) [Compound 100, 2-(4-chloro-3-fluorophenoxy)-N-{3-[3-(4-chloro-3-fluorophenoxy)-2-oxopyrrolidin-1-yl]bicyclo[1.1.1]pentan-1-yl}acetamide], `O=C(COc1ccc(Cl)c(F)c1)NC12CC(N3CCC(Oc4ccc(C(F)(F)F)nc4)C3=O)(C1)C2` (centres unmarked) [Compound 101, 2-(4-chloro-3-fluorophenoxy)-N-[3-(2-oxo-3-{[6-(trifluoromethyl)pyridin-3-yl]oxy}pyrrolidin-1-yl)bicyclo[1.1.1]pentan-1-yl]acetamide] is higher in EC50: 50 to 250 nM for the first, 250 to 1000 nM for the second.

`Cc1nn(C)c(C)c1OC1CCN(C23CC(NC(=O)COc4ccc(Cl)c(F)c4)(C2)C3)C1=O` (centres unmarked) [Compound 104, 2-(4-chloro-3-fluorophenoxy)-N-(3-{2-oxo-3-[(1,3,5-trimethyl-1H-pyrazol-4-yl)oxy]pyrrolidin-1-yl}bicyclo[1.1.1]pentan-1-yl)acetamide] and `Cc1cc(OC2CCN(C34CC(NC(=O)COc5ccc(Cl)c(F)c5)(C3)C4)C2=O)no1` (centres unmarked) [Compound 105, 2-(4-chloro-3-fluorophenoxy)-N-(3-{3-[(5-methyl-1,2-oxazol-3-yl)oxy]-2-oxopyrrolidin-1-yl}bicyclo[1.1.1]pentan-1-yl)acetamide] cannot be ordered by EC50: greater than 2000 nM for the first, greater than 2000 nM for the second.

`Cn1cc(OC2CCN(C34CC(NC(=O)COc5ccc(Cl)c(F)c5)(C3)C4)C2=O)cn1` (centres unmarked) [Compound 106, 2-(4-chloro-3-fluorophenoxy)-N-(3-{3-[(1-methyl-H-pyrazol-4-yl)oxy]-2-oxopyrrolidin-1-yl}bicyclo[1.1.1]pentan-1-yl)acetamide] and `Cn1nc(C(F)(F)F)cc1OC1CCN(C23CC(NC(=O)COc4ccc(Cl)c(F)c4)(C2)C3)C1=O` (centres unmarked) [Compound 107, 2-(4-chloro-3-fluorophenoxy)-N-[3-(3-{[1-methyl-3-(trifluoromethyl)-1H-pyrazol-5-yl]oxy}-2-oxopyrrolidin-1-yl)bicyclo[1.1.1]pentan-1-yl]acetamide] cannot be ordered by EC50: greater than 2000 nM for the first, greater than 2000 nM for the second.

`O=C(COc1ccc(Cl)c(F)c1)NC12CC(N3CCN(c4ccc(Cl)c(F)c4)C3=O)(C1)C2` [Compound 108, 2-(4-chloro-3-fluorophenoxy)-N-{3-[3-(4-chloro-3-fluorophenyl)-2-oxoimidazolidin-1-yl]bicyclo[1.1.1]pentan-1-yl}acetamide] and `O=C(COc1ccc(Cl)c(F)c1)NC12CC(N3CCN(c4ccc(Cl)cc4)C3=O)(C1)C2` [Compound 114, 2-(4-chloro-3-fluorophenoxy)-N-{3-[3-(4-chlorophenyl)-2-oxoimidazolidin-1-yl]bicyclo[1.1.1]pentan-1-yl}acetamide] cannot be ordered by EC50: less than 50 nM for the first, less than 50 nM for the second.

First: O=C(COc1ccc(Cl)c(F)c1)NC12CCC(N3CC(c4ccc(Cl)c(F)c4)=CC3=O)(CC1)C[C@@H]2O [Compound 109, 2-(4-chloro-3-fluorophenoxy)-N-{(2S)-4-[4-(4-chloro-3-fluorophenyl)-2-oxo-2,5-dihydro-1H-pyrrol-1-yl]-2-hydroxybicyclo[2.2.2]octan-1-yl}acetamide]
Second: O=C(COc1ccc(Cl)c(F)c1)NC12CC(N3CC(c4ccc(Cl)c(F)c4)OC3=O)(C1)C2 (centres unmarked) [Compound 116, 2-(4-chloro-3-fluorophenoxy)-N-{3-[5-(4-chloro-3-fluorophenyl)-2-oxo-1,3-oxazolidin-3-yl]bicyclo[1.1.1]pentan-1-yl}acetamide]
The EC50 of the first is lower: less than 50 nM for the first, 50 to 250 nM for the second. The first is the more potent here.

`O=C(COc1ccc(Cl)c(F)c1)NC12CC(N3C(=O)OC[C@@H]3c3ccc(Cl)c(Cl)c3)(C1)C2` [Compound 110, 2-(4-chloro-3-fluorophenoxy)-N-{3-[(4S)-4-(3,4-dichlorophenyl)-2-oxo-1,3-oxazolidin-3-yl]bicyclo[1.1.1]pentan-1-yl}acetamide] and `O=C(COc1ccc(Cl)c(F)c1)NC12CC(N3CCC(c4ccc(F)c(F)c4)OC3=O)(C1)C2` (centres unmarked) [Compound 112, 2-(4-chloro-3-fluorophenoxy)-N-{3-[6-(3,4-difluorophenyl)-2-oxo-1,3-oxazinan-3-yl]bicyclo[1.1.1]pentan-1-yl}acetamide] cannot be ordered by EC50: greater than 2000 nM for the first, greater than 2000 nM for the second.

Compared with `O=C(COc1ccc(Cl)c(Cl)c1)NC12CC(N3CCN(Cc4ccc(Cl)cc4)C3=O)(C1)C2` [Compound 111, N-(3-{3-[(4-chlorophenyl)methyl]-2-oxoimidazolidin-1-yl}bicyclo[1.1.1]pentan-1-yl)-2-(3,4-dichlorophenoxy)acetamide], `O=C(COc1ccc(Cl)c(F)c1)NC12CC(N3CCN(c4ccccc4)C3=O)(C1)C2` [Compound 115, 2-(4-chloro-3-fluorophenoxy)-N-[3-(2-oxo-3-phenylimidazolidin-1-yl)bicyclo[1.1.1]pentan-1-yl]acetamide] is lower in EC50: greater than 2000 nM for the first, 250 to 1000 nM for the second. The second is the more potent here.

Compared with `O=C(COc1ccc(Cl)c(F)c1)NC12CC(C3=NC(c4ccc(Cl)cc4)CO3)(C1)C2` (centres unmarked) [Compound 113, 2-(4-chloro-3-fluorophenoxy)-N-{3-[4-(4-chlorophenyl)-4,5-dihydro-1,3-oxazol-2-yl]bicyclo[1.1.1]pentan-1-yl}acetamide], `O=C(COc1ccc(F)c(Cl)c1)NC12CC(N3Cc4ccccc4C3=O)(C1)C2` [Compound 117, 2-(3-chloro-4-fluorophenoxy)-N-[3-(1-oxo-1,3-dihydro-2H-isoindol-2-yl)bicyclo[1.1.1]pentan-1-yl]acetamide] is lower in EC50: 250 to 1000 nM for the first, 50 to 250 nM for the second. The second is the more potent here.

First: O=C(CCOc1ccc(Cl)cc1)N[C@H]1CC[C@H](N2CCN(c3cnc(C(F)F)cn3)C2=O)CC1 [Compound 118, 3-(4-chlorophenoxy)-N-[(1r,4r)-4-{3-[5-(difluoromethyl)pyrazin-2-yl]-2-oxoimidazolidin-1-yl}cyclohexyl]propanamide]
Second: O=C(CCOc1ccc(Cl)c(F)c1)N[C@H]1CC[C@H](N2CCN(c3cnc(C(F)F)cn3)C2=O)CC1 [Compound 119, 3-(4-chloro-3-fluorophenoxy)-N-[(1r,4r)-4-{3-[5-(difluoromethyl)pyrazin-2-yl]-2-oxoimidazolidin-1-yl}cyclohexyl]propanamide]
The EC50 of the first is higher: greater than 2000 nM for the first, 250 to 1000 nM for the second.

`O=C(COc1ccc(Cl)c(Cl)c1)N[C@H]1CC[C@H](N2CCN(c3cnc(C(F)F)cn3)C2=O)CC1` [Compound 120, 2-(3,4-dichlorophenoxy)-N-[(1r,4r)-4-{3-[5-(difluoromethyl)pyrazin-2-yl]-2-oxoimidazolidin-1-yl}cyclohexyl]acetamide] and `O=C(COc1ccc(Cl)c(F)c1)N[C@H]1CC[C@H](N2CCN(c3cnc(C(F)F)cn3)C2=O)CC1` [Compound 121, 2-(4-chloro-3-fluorophenoxy)-N-[(1r,4r)-4-{3-[5-(difluoromethyl)pyrazin-2-yl]-2-oxoimidazolidin-1-yl}cyclohexyl]acetamide] cannot be ordered by EC50: less than 50 nM for the first, less than 50 nM for the second.

Compound `O=C(N[C@H]1CC[C@H](N2CCN(c3cnc(C(F)F)cn3)C2=O)CC1)OCc1ccccc1` [Compound 122, benzyl [(1r,4r)-4-{3-[5-(difluoromethyl)pyrazin-2-yl]-2-oxoimidazolidin-1-yl}cyclohexyl]carbamate] has an EC50 greater than 2000 nM.
